In patent publication US20200087625A1, “METHODS FOR ISOLATING, EXPANDING AND ADMINISTERING CANCER SPECIFIC CD8+ T CELLS” (priority 2017, published 2020):

Legend:
Type in all cases: in vivo, BALB/c mice
dendritic cells = test: Dendritic cell activation and CD8+ T cell recruitment in mLN and lungs; conditions: day 7
Method: FIGS. 25A-25F. Innate immune cells, NK cells and dendritic cells are activated following 1V270 therapy and contribute to anti-metastatic effects (A-C) Systemic administration of 1V270 activates dendritic cells and increases CD8^+ cell recruitment in the lung draini lymph node. (A) BALB/c mice (n=S/group) were treated with 1V270 on day −1 and then tumor cells were i.v. administered on day 0. Seven days later, mediastinal lymph node (mLN) cells were stained for dendritic cells (DC; CD45^+CD11c^+MHC classll^+). (B) DCs were further stained for CD80 and CD86. (C) The mLN cells were also stained for central memory CD8^+ T cells (CD3+CD8^+CD44^+CD62L^+), effector memory CD8^+ T cells (CD3+CD8^+CD44^+CD62L^+), and naive CD8^+ T cells (CD3+CD8^+CD44^−CD62L^−). Each dot indicates an individual mouse and horizontal and vertical bars indicate means±SEM. Data are representative of 3 independent experiments showing similar results. *P<0.05, **P<0.01 by Mann-Whitney U test comparing the individual groups. (D-F) In vivo imaging analyses using GLF•expressing 4T1 cells (4T1-GLF). (D) BALB/c mice (n=14-15/group) were i.p, administered with 200 μg 1V270 or vehicle. Next day, 2×10^4 4T1-GLF cells were i.v. injected through the tail vein. Tumor signals were quantified by IVIS. Data (mean±SEM) were pooled from 3 independent experiments showing similar results. *P<0.05, **P<0.01 by two-way ANOVA using a Bonferroni post hoc test comparing treatment groups against the vehicle group. […] (E,F) NK cells recruited by 1V270 therapy prevent colonization of 4T1 cells. (E) BALB/c mice (n=G−7/group) were treated with 1V270 (200 μg/injection) on day −1 and then tumor cells were i.v. administered on day 0. On the next day, lung cells were stained for NK markers (CD45^+[…] NKp46^+CD49^+) and analyzed by flow cytometry. […] Tumor signals were analyzed as described above. […]
Since the 1V270 therapy induced a tumor-specific CD8^+ T cell response in the 4T1 model, we evaluated whether the therapy activated APCs in the lungs, and/or in the draining lymph nodes. […]

NK cells and MDSC = test: Innate immune cell recruitment to the lungs (flow cytometry); conditions: 1V270 day -1; vs vehicle
Method: FIGS. 25A-25F. Innate immune cells, NK cells and dendritic cells are activated following 1V270 therapy and contribute to anti-metastatic effects (A-C) Systemic administration of 1V270 activates dendritic cells and increases CD8^+ cell recruitment in the lung draini lymph node. (A) BALB/c mice (n=S/group) were treated with 1V270 on day −1 and then tumor cells were i.v. administered on day 0. Seven days later, mediastinal lymph node (mLN) cells were stained for dendritic cells (DC; CD45^+CD11c^+MHC classll^+). (B) DCs were further stained for CD80 and CD86. (C) The mLN cells were also stained for central memory CD8^+ T cells (CD3+CD8^+CD44^+CD62L^+), effector memory CD8^+ T cells (CD3+CD8^+CD44^+CD62L^+), and naive CD8^+ T cells (CD3+CD8^+CD44^−CD62L^−). Each dot indicates an individual mouse and horizontal and vertical bars indicate means±SEM. […] Tumor signals were quantified by IVIS. […] On the next day, lung cells were stained for NK markers (CD45^+[…] NKp46^+CD49^+) and analyzed by flow cytometry. […] Tumor signals were analyzed as described above. […]
FIGS. 33A-33C. […] Next day, single cell suspensions derived from the lungs were stained for (A) NK cells (CD45^+CD3^−NKp46^+CD49^+), (B) M-MDSCs (CD45^+CD11b^+Ly6G^−Ly6^high) and (C) PMN-MDSCs (CD45^+CD11b^+Ly6G^+) were analyzed by flow cytometric assay. […]

[1] = Serum cytokine analysis (Luminex) after systemic administration; conditions: i.p. 185 nmol/injection; sera 2, 4, 6, 24 hours; 1V270 vs 1V136
Method: FIG. 36. […] BALB/c mice (n=5) were i.p. administered IV270 (200 μg=185 nmol/injection) or […] (58 μg=185 nmol/injection) and sera were collected 2, 4, 6, and 24 hours following the administration. The levels of TNFα, IL-12, and IP-IO were measured by Luminex assay. *P<0.05, **P<0.01 by two way ANOVA using a Bonferroni post hoc test comparing treatment groups.
The sera were collected from mice receiving […] of 1V136, 1V270 or vehicle 2, 4, 6, and 24 hours after i.p. administration (15). Cytokine levels in sera were determined by Luminex bead assays (MILLIPLEX™ MAP kit, Millip ore, Billerica, Mass.).

CCCCCCCCC=CCCCCCCCC(=O)OCC(COP(=O)(O)OCCNC(=O)c1ccc(Cn2c(=O)[nH]c3c(N)nc(OCCOC)nc32)cc1)OC(=O)CCCCCCCC=CCCCCCCCC (stereo not drawn) [1V270]
frequencies of cells expressing co-stimulatory molecules (CD80 or CD86) (dendritic cells; 1V270 i.p. day -1): significantly increased | recruitment of CD8+ T cells (central memory, effector memory, naive) (dendritic cells; mLN): recruitment of CD8^+ T cells with memory and nalve phenotypes | population of CD11c+ dendritic cells (dendritic cells; mLNs and lungs, 1V270 i.p. day -1): increased in both mLNs and the lungs | population of NK cells recruited to the lungs (NK cells and MDSC): Significantly increased populations | population of monocytic-MDSC recruited to the lungs (NK cells and MDSC): Significantly increased populations | serum cytokine induction (TNFα, IL-12, IP-10) [1]: significantly lower levels of cytokine induction
